Test results as given in US20210353579A1, “HIGH PENETRATION COMPOSITIONS AND USES THEREOF” (Techfields Pharma Co., Ltd., priority 2006, published 2021).

What was measured:
Hypertension patients = assay: Anti-hypertension effect of transdermal atenolol in patients; type: in vivo, human; settings: value after the slash, 100 mg atenolol HCl salt to the chest once per day
Method: 20 Hypertension patents were divided to 2 groups. Group A is control group (n=10, 1 ml of water was administrated to the chest of patients once per day) and group B is atenolol treated group (n=10, 100 mg of atenolol HCl salt was administrated to the chest of patients once per day) (Table 32).

mice [1] = assay: Analgesic activity, D'Amour-Smith method (tail heat, pain threshold); type: in vivo; settings: 200 mg/kg transdermally vs 200 mg/kg diflunisal orally
Method: After the tested compounds are administered (the dosages for each test compounds are specified in FIG. 3, prodrug compounds are administered orally and transdermally respectively in different groups, while parent compounds are administered orally) to a group of mice (six mice every group), the tails of mice are exposed to heat and the prolongation time of pain threshold is determined. […] The prodrug compounds show similar analgesic activities when the same dosages are administered orally or transdermally. (FIG. 3)

normal rats [2] = assay: Blood glucose in normal rats, transdermal; type: in vivo, rat; settings: for Blood glucose, Average: normal rats (second Average line of Table 24), average second to fifth week, equal to 20 mg/kg of NSAIAs once per day; for Blood glucose, Baseline: normal rats (second Baseline line of Table 24), equal to 20 mg/kg of NSAIAs
From the text: HPPs lower blood glucose level in rat models (SLAC/GK, type 2 diabetes, n=7). 50% acetone solution of diethylaminoethyl acetylsalicylate.acetylsalicylic acid salt (P-1, in acetone); 4-acetamidophenyl salicylyldimethylaminobutyrate.HCl (P-6), diethylaminoethyl 5-(2,4-difluorophenyl) acetylsalicylate.5-(2,4-difluorophenyl).acetylsalicylic acid salt (P-8), diethylaminoethyl salicylsalicylate.AcOH (P-9), diethylaminoethyl salicylate.AcOH (P-10), diethylaminoethyl 5-acetamido-acetylsalicylate (P-58), diethylaminoethyl acetylsalicylsalicylate.acetylsalicylsalicylic acid salt (P-59), diethylaminoethyl acetylsalicylsalicylate.acetylsalicylsalicylsalicylic acid salt (P-60) (equal to of 20 mg/kg of NSAIAs) are administered transdermally to the backs (about 1.5 cm^2) of rats (fur was shaved) once per day (at 8 am) for 5 weeks. The blood glucose levels are measured once every 3 days at 3 pm (no fasting) from the second week to the fifth week (Table 24). The blood lipid levels are measured at the end of the fifth week (Table 25). […]

normal rats [3] = assay: Blood glucose in normal rats, oral with food; type: in vivo, rat; settings: for Blood glucose, Normal rats, Average: average second to fifth week, equal to 20 mg/kg of NSAIAs every day; for Blood glucose, Normal rats, Baseline: equal to 20 mg/kg of NSAIAs
[4] = system: rats (SLAC/GK, type 2 diabetes); assay: Blood glucose in type 2 diabetes rats, transdermal; type: in vivo, rat; settings: diabetic rats (SLAC/GK); for Blood glucose, Average: average second to fifth week, no fasting, equal to 20 mg/kg of NSAIAs once per day for 5 weeks; for Blood glucose, Baseline: equal to 20 mg/kg of NSAIAs once per day
From the text: (§1) HPPs lower blood glucose level in rat models (SLAC/GK, type 2 diabetes, n=7). 50% acetone solution of diethylaminoethyl acetylsalicylate.acetylsalicylic acid salt (P-1, in acetone); 4-acetamidophenyl salicylyldimethylaminobutyrate.HCl (P-6), diethylaminoethyl 5-(2,4-difluorophenyl) acetylsalicylate.5-(2,4-difluorophenyl).acetylsalicylic acid salt (P-8), diethylaminoethyl salicylsalicylate.AcOH (P-9), diethylaminoethyl salicylate.AcOH (P-10), diethylaminoethyl 5-acetamido-acetylsalicylate (P-58), diethylaminoethyl acetylsalicylsalicylate.acetylsalicylsalicylic acid salt (P-59), diethylaminoethyl acetylsalicylsalicylate.acetylsalicylsalicylsalicylic acid salt (P-60) (equal to of 20 mg/kg of NSAIAs) are administered transdermally to the backs (about 1.5 cm^2) of rats (fur was shaved) once per day (at 8 am) for 5 weeks. The blood glucose levels are measured once every 3 days at 3 pm (no fasting) from the second week to the fifth week (Table 24). The blood lipid levels are measured at the end of the fifth week (Table 25).

[5] = system: rats (SLAC/GK, type 2 diabetes); assay: Blood glucose in type 2 diabetes rats, oral with food; type: in vivo, rat; settings: for Blood glucose, Diabetic rats, Average: average second to fifth week, no fasting, equal to 20 mg/kg of NSAIAs every day for 5 weeks; for Blood glucose, Diabetic rats, Baseline: equal to 20 mg/kg of NSAIAs
From the text: (§2) 20% acetone solution of diethylaminoethyl acetylsalicylate.acetylsalicylic acid salt (P-1, in acetone); 4-acetamidophenyl salicylyldimethylaminobutyrate.HCl (P-6), diethylaminoethyl 5-(2,4-difluorophenyl) acetylsalicylate.5-(2,4-difluorophenyl) acetylsalicylic acid salt (P-8), diethylaminoethyl salicylsalicylate.AcOH (P-9), diethylaminoethyl salicylate.AcOH (P-10), diethylaminoethyl 5-acetamido-acetylsalicylate (P-58), diethylaminoethyl acetylsalicylsalicylate. acetylsalicylsalicylic acid salt (P-59), diethylaminoethyl acetylsalicylsalicylate. acetylsalicylsalicylsalicylic acid salt (P-60) (equal to of 20 mg/kg of NSAIAs) were mixed with food and were orally administered to the rats (SLAC/GK, type 2 diabetes, n=7) with food every day for 5 weeks. The blood glucose levels were measured once every 3 days at 3 pm (no fasting) from the second week to the fifth week. The blood lipid levels were measured at the end of the fifth week.

rats = assay: Antipyretic activity, E. coli suspension as pyrogen; type: in vivo; settings: in °C (unit assumed)
Method: Rats are administered with sterilized E. coli suspension as a pyrogen. Each group of rats are administered with a prodrug compounds or parent compounds at a dosage specified below. The prodrug compounds are administered either orally or transdermally. The parent compounds are administered orally.

[6] = Plasma levels after transdermal administration to hairless mice; type: in vivo; settings: mouse, in vivo
Method: Tested compounds (20% solution or suspension in 1 mL isopropanol) are administered transdermally to the skin of intact hairless mice. The plasma levels of the parent compounds are determined by HPLC.

rat = settings: rats
Method: The acute toxicity of the prodrug compounds and parent compounds are measured by LD50 of rat.

[7] = system: rats (SLAC/GK, type 2 diabetes); assay: Blood lipid in type 2 diabetes rats, transdermal; type: in vivo, rat; settings: for Cholesterol (HDL), Baseline / Cholesterol (total), Baseline / Triglycerides, Baseline: equal to 20 mg/kg of NSAIAs; for Cholesterol (HDL), Average / Cholesterol (total), Average / Triglycerides, Average: end of the fifth week, equal to 20 mg/kg of NSAIAs once per day
From the text: as §1

human skin tissue = settings: pH 7.4
mice [8] = assay: Analgesic activity, acetic acid writhing; type: in vivo; settings: 30 min before acetic acid
Method: The prodrug compounds are administered either transdermally or orally. The parent compounds are administered orally. The number of writhing that occurred when mice are administered the acetic acid solution are counted, and the rate of inhibition based on the control group which was not pretreated with any test compounds is calculated. […] The A group is the control group.

[9] = system: mice (SLAC:NOD-IDDM, type 1 diabetes); assay: Blood glucose in type 1 diabetes mice, transdermal; type: in vivo, mouse; settings: for Blood glucose, Average: average fourth to seventh week, no fasting, equal to 30 mg/kg of NSAIAs once per day for 7 weeks; for Blood glucose, Baseline: equal to 30 mg/kg of NSAIAs
From the text: The pro-drugs in this invention lower blood glucose levels in mouse models (SLAC:NOD-IDDM, type 1 diabetes, n=7). 50% acetone solution of diethylaminoethyl acetylsalicylate.acetylsalicylic acid salt (P-1, in acetone); 4-acetamidophenyl salicylyldimethylaminobutyrate.HCl (P-6), diethylaminoethyl 5-(2,4-difluorophenyl) acetylsalicylate.5-(2,4-difluorophenyl) acetylsalicylic acid salt (P-8), diethylaminoethyl salicylsalicylate.AcOH (P-9), diethylaminoethyl salicylate.AcOH (P-10), diethylaminoethyl 5-acetamido-acetylsalicylate (P-58), diethylaminoethyl acetylsalicylsalicylate. acetylsalicylsalicylic acid salt (P-59), diethylaminoethyl acetylsalicylsalicylate. acetylsalicylsalicylsalicylic acid salt (P-60) (equal to of 30 mg/kg of NSAIAs) were administered transdermally to the backs (about 1.5 cm^2) of mice (fur was shaved) once per day (at 8 am) for 7 weeks. The blood glucose levels were measured once every 3 days at 3 pm (no fasting) from the fourth week to the seventh week.

[10] = system: rats (SLAC/GK, type 2 diabetes); assay: Blood lipid in type 2 diabetes rats, oral with food; type: in vivo, rat; settings: for Cholesterol (HDL), Baseline / Cholesterol (total), Baseline / Triglycerides, Baseline: equal to 20 mg/kg of NSAIAs; for Cholesterol (HDL), Average / Cholesterol (total), Average / Triglycerides, Average: end of the fifth week, equal to 20 mg/kg of NSAIAs every day
From the text: as §2
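Wherever LD50 of HPP is given: acute toxicity in rats expressed as LD50, determined for both prodrugs and their parent compounds.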

| Compound | analgesic activity, prolongation time of pain threshold of mice tails (mice [1]) | Blood glucose, Average (normal rats [2]) [mmol/L] | Blood glucose, Baseline (normal rats [2]) [mmol/L] | Blood glucose, Normal rats, Average (normal rats [3]) [mmol/L] | Blood glucose, Normal rats, Baseline (normal rats [3]) [mmol/L] | Blood glucose, Average [4] [mmol/L] | Blood glucose, Baseline [4] [mmol/L] | Blood glucose, Diabetic rats, Average [5] [mmol/L] | Blood glucose, Diabetic rats, Baseline [5] [mmol/L] | body temperature, t = 0 min (rats; 100 mg/kg transdermally) | body temperature, t = 90 min (rats; 100 mg/kg transdermally) | body temperature, t = 180 min (rats; 100 mg/kg transdermally) | body temperature, t = 270 min (rats; 100 mg/kg transdermally) | body temperature, t = 0 min (rats; 150 mg/kg transdermally) | body temperature, t = 90 min (rats; 150 mg/kg transdermally) | body temperature, t = 180 min (rats; 150 mg/kg transdermally) | body temperature, t = 270 min (rats; 150 mg/kg transdermally) | Peak plasma concentration of parent compound after prodrug compound [6] [mg/L] | t, time to peak plasma level of parent compound after prodrug compound [6] [min] | LD50 of HPP (rat) [mg/kg] | also measured |
| --- | --- | --- | --- | --- | --- | --- | --- | --- | --- | --- | --- | --- | --- | --- | --- | --- | --- | --- | --- | --- | --- |
| CC(C)NCC(O)COc1ccc(CC(N)=O)cc1 (centres unmarked) [atenolol] | – | – | – | – | – | – | – | – | – | – | – | – | – | – | – | – | – | – | – | – | Blood pressure (2 weeks after treatment), second value (Hypertension patients; 2 weeks after treatment): 113 ± 23 mmHg; Blood Pressure (before treatment), second value (Hypertension patients; before treatment): 110 ± 20 mmHg |
| CC(=O)O.CCN(CC)CCOC(=O)c1ccccc1O [diethylaminoethyl salicylate.AcOH] | stronger analgesic activity | 6.9 ± 1 | 6.8 ± 1 | 6.9 ± 1 | 6.7 ± 1 | 8.2 ± 1 | 15.8 ± 3 | 7.8 ± 1 | 15.6 ± 3 | 37.28 ± 0.06 | 36.85 ± 0.06 | 36.88 ± 0.08 | 36.86 ± 0.07 | 37.26 ± 0.05 | 36.55 ± 0.05 | 36.60 ± 0.07 | 36.65 ± 0.05 | 40 | 30 | 1600 | Cholesterol (HDL), Baseline [7]: 1.6 ± 0.2 mmol/L; Cholesterol (total), Baseline [7]: 7.1 ± 0.5 mmol/L; Triglycerides, Baseline [7]: 5.6 ± 0.6 mmol/L; Cholesterol (HDL), Average [7]: 1.5 ± 0.1 mmol/L; Cholesterol (total), Average [7]: 4.9 ± 0.4 mmol/L; Triglycerides, Average [7]: 2.5 ± 0.2 mmol/L; In vitro penetration rate (apparent flux), prodrug compounds (human skin tissue): 60 μg/cm^2/h; % (rate of writhing inhibition) (mice [8]; 50 mg/kg transdermally): 60%; No. of Writhing (mice [8]; 50 mg/kg transdermally): 14.0; % (rate of writhing inhibition) (mice [8]; 100 mg/kg transdermally): 66%; No. of Writhing (mice [8]; 100 mg/kg transdermally): 11.9; Blood glucose, Average [9]: 8.2 ± 1 mmol/L; Blood glucose, Baseline [9]: 25.8 ± 3 mmol/L; Cholesterol (HDL), Baseline [10]: 1.6 ± 0.2 mmol/L; Cholesterol (total), Baseline [10]: 7.6 ± 0.5 mmol/L; Triglycerides, Baseline [10]: 5.7 ± 0.6 mmol/L; Cholesterol (HDL), Average [10]: 1.7 ± 0.1 mmol/L; Cholesterol (total), Average [10]: 5.2 ± 0.5 mmol/L; Triglycerides, Average [10]: 2.6 ± 0.2 mmol/L |
| CC(=O)O.CCN(CC)CCOC(=O)c1ccccc1OC(=O)c1ccccc1O [diethylaminoethyl salicylsalicylate.AcOH] | stronger analgesic activity | 6.7 ± 1 | 6.5 ± 1 | 6.6 ± 1 | 6.3 ± 1 | 8.4 ± 1 | 16.5 ± 4 | 7.6 ± 1 | 16.5 ± 4 | 37.28 ± 0.06 | 36.75 ± 0.06 | 36.78 ± 0.08 | 36.80 ± 0.07 | 37.26 ± 0.05 | 36.45 ± 0.05 | 36.40 ± 0.07 | 36.50 ± 0.05 | 40 | 30 | 2000 | Cholesterol (HDL), Baseline [7]: 1.3 ± 0.1 mmol/L; Cholesterol (total), Baseline [7]: 7.7 ± 0.5 mmol/L; Triglycerides, Baseline [7]: 5.3 ± 0.5 mmol/L; Cholesterol (HDL), Average [7]: 1.4 ± 0.2 mmol/L; Cholesterol (total), Average [7]: 4.8 ± 0.4 mmol/L; Triglycerides, Average [7]: 2.4 ± 0.2 mmol/L; In vitro penetration rate (apparent flux), prodrug compounds (human skin tissue): 80 μg/cm^2/h; % (rate of writhing inhibition) (mice [8]; 50 mg/kg transdermally): 59%; No. of Writhing (mice [8]; 50 mg/kg transdermally): 14.2; % (rate of writhing inhibition) (mice [8]; 100 mg/kg transdermally): 65%; No. of Writhing (mice [8]; 100 mg/kg transdermally): 12.0; Blood glucose, Average [9]: 9.4 ± 1 mmol/L; Blood glucose, Baseline [9]: 26.5 ± 4 mmol/L; Cholesterol (HDL), Baseline [10]: 1.5 ± 0.1 mmol/L; Cholesterol (total), Baseline [10]: 7.9 ± 0.5 mmol/L; Triglycerides, Baseline [10]: 5.8 ± 0.6 mmol/L; Cholesterol (HDL), Average [10]: 1.4 ± 0.2 mmol/L; Cholesterol (total), Average [10]: 5.6 ± 0.4 mmol/L; Triglycerides, Average [10]: 2.7 ± 0.2 mmol/L |
